According to ChEMBL document CHEMBL2413016, “Synthesis and in vivo evaluation of [(18)F]2-(4-(4-(2-(2-fluoroethoxy)phenyl)piperazin-1-yl)butyl)-4-methyl-1,2,4-triazine-3,5(2H,4H)-dione ([(18)F]FECUMI-101) as an imaging probe for 5-HT1A receptor agonist in nonhuman primates” (Bioorg Med Chem, 2013):

Assays:
[1] = molecular target: Histamine H1 receptor (Homo sapiens, UniProt P35367); test: Binding affinity to histamine H1 receptor (unknown origin)
[2] = molecular target: 5-hydroxytryptamine receptor 5A (Homo sapiens, UniProt P47898); test: Binding affinity to 5HT5A receptor (unknown origin)
5-hydroxytryptamine receptor 5A, sequence (P47898 whole entry): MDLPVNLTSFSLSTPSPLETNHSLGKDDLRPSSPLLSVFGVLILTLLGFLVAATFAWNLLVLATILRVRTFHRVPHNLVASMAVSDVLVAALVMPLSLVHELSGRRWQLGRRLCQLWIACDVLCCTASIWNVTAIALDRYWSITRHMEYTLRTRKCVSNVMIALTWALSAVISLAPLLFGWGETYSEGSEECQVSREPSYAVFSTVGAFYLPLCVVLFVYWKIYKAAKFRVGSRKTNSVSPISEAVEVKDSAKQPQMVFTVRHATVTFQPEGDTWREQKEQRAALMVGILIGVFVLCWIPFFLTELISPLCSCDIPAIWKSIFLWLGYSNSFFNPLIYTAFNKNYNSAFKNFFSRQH

[3] = molecular target: D(4) dopamine receptor (Homo sapiens, UniProt P21917); test: Binding affinity to dopamine 4 receptor (unknown origin)
[4] = molecular target: Alpha-1A adrenergic receptor (Homo sapiens, UniProt P35348); test: Binding affinity to adrenergic alpha1A receptor (unknown origin)
Alpha-1A adrenergic receptor, sequence (P35348 whole entry): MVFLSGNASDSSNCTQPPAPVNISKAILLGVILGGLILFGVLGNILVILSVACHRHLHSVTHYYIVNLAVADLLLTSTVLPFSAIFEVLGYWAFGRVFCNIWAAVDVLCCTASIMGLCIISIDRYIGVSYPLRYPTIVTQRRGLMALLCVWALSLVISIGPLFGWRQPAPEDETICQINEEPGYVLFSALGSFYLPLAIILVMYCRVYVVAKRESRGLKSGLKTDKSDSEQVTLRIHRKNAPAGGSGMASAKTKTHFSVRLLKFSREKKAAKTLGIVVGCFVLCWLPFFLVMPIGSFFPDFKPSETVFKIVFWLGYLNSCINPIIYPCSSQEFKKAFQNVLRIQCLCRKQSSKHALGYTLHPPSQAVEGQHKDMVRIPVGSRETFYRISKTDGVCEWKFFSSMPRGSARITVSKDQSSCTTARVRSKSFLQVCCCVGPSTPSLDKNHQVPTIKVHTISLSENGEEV

[5] = molecular target: D(3) dopamine receptor (Homo sapiens, UniProt P35462); test: Binding affinity to dopamine 3 receptor (unknown origin)
D(3) dopamine receptor, sequence (P35462 whole entry): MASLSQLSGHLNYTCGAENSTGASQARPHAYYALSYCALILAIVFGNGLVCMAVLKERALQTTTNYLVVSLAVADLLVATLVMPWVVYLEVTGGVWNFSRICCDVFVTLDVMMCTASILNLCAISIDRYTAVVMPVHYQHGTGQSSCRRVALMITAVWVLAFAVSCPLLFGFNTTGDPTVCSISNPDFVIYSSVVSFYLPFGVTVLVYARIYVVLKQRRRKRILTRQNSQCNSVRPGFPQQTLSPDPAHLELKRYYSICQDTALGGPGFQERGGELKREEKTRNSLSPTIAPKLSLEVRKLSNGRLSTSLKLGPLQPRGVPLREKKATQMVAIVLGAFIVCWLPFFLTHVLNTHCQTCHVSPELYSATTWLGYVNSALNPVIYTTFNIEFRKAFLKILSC

[6] = Binding affinity to benzodiazepine receptor in rat brain; type: tissue-based
[7] = molecular target: 5-hydroxytryptamine receptor 2A (Homo sapiens, UniProt P28223); test: Binding affinity to 5HT2A receptor (unknown origin)
5-hydroxytryptamine receptor 2A, sequence (P28223 whole entry): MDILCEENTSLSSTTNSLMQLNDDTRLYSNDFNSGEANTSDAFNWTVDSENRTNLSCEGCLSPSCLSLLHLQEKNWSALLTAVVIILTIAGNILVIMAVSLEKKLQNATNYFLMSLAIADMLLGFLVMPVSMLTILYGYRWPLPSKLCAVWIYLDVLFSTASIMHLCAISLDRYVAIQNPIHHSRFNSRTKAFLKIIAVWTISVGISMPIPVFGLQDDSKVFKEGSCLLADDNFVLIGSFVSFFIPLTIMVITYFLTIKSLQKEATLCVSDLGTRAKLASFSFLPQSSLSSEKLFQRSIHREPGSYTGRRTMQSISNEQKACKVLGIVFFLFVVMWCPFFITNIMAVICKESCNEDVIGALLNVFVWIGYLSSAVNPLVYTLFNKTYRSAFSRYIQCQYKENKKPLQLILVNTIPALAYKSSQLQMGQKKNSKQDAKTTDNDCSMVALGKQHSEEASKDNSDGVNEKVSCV

[8] = molecular target: 5-hydroxytryptamine receptor 2B (Homo sapiens, UniProt P41595); test: Binding affinity to 5HT2B receptor (unknown origin)
[9] = molecular target: Alpha-2A adrenergic receptor (Homo sapiens, UniProt P08913); test: Binding affinity to adrenergic alpha2A receptor (unknown origin)
Alpha-2A adrenergic receptor, sequence (P08913 whole entry): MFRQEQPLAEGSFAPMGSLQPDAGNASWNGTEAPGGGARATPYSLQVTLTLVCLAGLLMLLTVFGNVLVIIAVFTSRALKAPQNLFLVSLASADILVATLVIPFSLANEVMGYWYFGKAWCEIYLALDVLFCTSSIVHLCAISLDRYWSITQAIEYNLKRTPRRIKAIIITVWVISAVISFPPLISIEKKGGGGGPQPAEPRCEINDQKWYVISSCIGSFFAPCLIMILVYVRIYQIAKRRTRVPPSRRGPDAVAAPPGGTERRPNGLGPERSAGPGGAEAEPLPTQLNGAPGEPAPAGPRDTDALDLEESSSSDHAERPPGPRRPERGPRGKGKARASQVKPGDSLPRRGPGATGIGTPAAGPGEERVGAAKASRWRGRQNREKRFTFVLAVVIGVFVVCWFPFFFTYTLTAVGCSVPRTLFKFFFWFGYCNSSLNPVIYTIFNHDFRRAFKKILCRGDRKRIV

[10] = Binding affinity to sigma 2 receptor (unknown origin); set-up: species or system Homo sapiens
[11] = molecular target: T1, 5-hydroxytryptamine receptor 1A (Homo sapiens, UniProt P08908); test: Binding affinity to 5HT1A receptor (unknown origin)
T1 sequence (P08908 whole entry): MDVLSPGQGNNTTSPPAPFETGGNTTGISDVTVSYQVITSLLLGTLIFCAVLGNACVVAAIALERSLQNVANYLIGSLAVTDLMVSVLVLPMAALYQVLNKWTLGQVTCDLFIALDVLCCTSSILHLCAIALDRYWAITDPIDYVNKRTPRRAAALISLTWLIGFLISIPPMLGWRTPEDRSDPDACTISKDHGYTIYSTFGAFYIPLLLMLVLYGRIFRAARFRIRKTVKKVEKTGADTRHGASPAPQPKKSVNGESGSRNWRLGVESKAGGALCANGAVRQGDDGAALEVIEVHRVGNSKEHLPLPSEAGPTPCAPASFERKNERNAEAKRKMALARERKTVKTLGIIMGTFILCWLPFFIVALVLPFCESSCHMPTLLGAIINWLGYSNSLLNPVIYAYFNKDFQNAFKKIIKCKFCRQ

[12] = molecular target: 5-hydroxytryptamine receptor 1B (Homo sapiens, UniProt P28222); test: Binding affinity to 5HT1B receptor (unknown origin)
[13] = molecular target: 5-hydroxytryptamine receptor 1A (Homo sapiens) (UniProt P08908); test: Partial agonist activity at human 5HT1A receptor expressed in CHO cells assessed as increase in [35S]GTPgammaS binding relative to serotonin; type: functional, cell-based
[14] = molecular target: D(2) dopamine receptor (Homo sapiens, UniProt P14416); test: Binding affinity to dopamine 2 receptor (unknown origin)
[15] = molecular target: T1, 5-hydroxytryptamine receptor 1A; test: Partial agonist activity at human 5HT1A receptor expressed in CHO cells assessed as increase in [35S]GTPgammaS binding; type: functional, cell-based
[16] = molecular target: Alpha-1B adrenergic receptor (Homo sapiens, UniProt P35368); test: Binding affinity to adrenergic alpha1B receptor (unknown origin)
Alpha-1B adrenergic receptor, sequence (P35368 whole entry): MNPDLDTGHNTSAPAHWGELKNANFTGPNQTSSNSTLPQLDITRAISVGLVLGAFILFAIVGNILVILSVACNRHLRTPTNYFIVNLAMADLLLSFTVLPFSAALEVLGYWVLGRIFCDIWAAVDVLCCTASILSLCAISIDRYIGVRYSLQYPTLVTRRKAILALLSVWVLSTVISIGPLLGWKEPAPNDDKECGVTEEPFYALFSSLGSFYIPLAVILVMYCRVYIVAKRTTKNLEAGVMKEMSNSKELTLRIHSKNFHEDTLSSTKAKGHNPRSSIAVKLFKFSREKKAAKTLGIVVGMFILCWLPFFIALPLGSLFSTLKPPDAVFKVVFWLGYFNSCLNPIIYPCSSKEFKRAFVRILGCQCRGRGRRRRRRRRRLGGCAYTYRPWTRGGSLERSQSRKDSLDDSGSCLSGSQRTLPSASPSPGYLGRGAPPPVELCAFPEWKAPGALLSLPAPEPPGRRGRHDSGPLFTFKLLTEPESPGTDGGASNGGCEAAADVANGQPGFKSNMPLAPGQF

[17] = molecular target: Alpha-2B adrenergic receptor (Homo sapiens, UniProt P18089); test: Binding affinity to adrenergic alpha2B receptor (unknown origin)
[18] = molecular target: Alpha-1D adrenergic receptor (Homo sapiens, UniProt P25100); test: Binding affinity to adrenergic alpha1D receptor (unknown origin)
[19] = molecular target: Sigma non-opioid intracellular receptor 1 (Homo sapiens, UniProt Q99720); test: Binding affinity to sigma 1 receptor (unknown origin)
Sigma non-opioid intracellular receptor 1, sequence (Q99720 whole entry): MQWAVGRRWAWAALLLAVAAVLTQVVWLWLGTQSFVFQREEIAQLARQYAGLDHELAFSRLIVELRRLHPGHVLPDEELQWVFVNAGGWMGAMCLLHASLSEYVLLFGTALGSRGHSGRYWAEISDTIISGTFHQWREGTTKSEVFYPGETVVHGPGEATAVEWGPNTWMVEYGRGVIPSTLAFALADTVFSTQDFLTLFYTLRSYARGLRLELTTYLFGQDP

[20] = molecular target: Histamine H2 receptor (Homo sapiens, UniProt P25021); test: Binding affinity to histamine H2 receptor (unknown origin)
Histamine H2 receptor, sequence (P25021 whole entry): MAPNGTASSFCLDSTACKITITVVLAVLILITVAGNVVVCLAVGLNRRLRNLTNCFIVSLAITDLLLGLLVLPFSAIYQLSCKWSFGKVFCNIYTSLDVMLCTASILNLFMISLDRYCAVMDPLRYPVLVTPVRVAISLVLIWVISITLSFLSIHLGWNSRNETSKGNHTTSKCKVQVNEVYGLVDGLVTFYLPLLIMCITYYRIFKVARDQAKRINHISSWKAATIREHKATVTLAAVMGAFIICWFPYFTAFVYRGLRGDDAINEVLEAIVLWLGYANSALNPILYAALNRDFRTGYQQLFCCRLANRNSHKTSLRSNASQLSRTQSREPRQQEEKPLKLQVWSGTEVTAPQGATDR

[21] = molecular target: Alpha-2C adrenergic receptor (Homo sapiens, UniProt P18825); test: Binding affinity to adrenergic alpha2C receptor (unknown origin)
Alpha-2C adrenergic receptor, sequence (P18825 whole entry): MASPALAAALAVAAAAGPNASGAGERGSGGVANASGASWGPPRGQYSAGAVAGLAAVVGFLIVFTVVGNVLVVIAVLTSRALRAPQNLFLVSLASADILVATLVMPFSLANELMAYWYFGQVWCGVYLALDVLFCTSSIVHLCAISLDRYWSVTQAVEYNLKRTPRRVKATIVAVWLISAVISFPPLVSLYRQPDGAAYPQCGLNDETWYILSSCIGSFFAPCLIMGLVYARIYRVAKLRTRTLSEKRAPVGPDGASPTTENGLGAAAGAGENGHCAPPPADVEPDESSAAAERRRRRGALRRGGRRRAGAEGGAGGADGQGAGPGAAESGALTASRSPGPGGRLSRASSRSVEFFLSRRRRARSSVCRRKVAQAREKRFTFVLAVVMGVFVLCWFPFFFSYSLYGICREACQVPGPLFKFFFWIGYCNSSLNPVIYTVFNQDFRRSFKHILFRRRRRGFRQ

[22] = molecular target: 5-hydroxytryptamine receptor 7 (Homo sapiens, UniProt P34969); test: Binding affinity to 5HT7 receptor (unknown origin)
5-hydroxytryptamine receptor 7, sequence (P34969 whole entry): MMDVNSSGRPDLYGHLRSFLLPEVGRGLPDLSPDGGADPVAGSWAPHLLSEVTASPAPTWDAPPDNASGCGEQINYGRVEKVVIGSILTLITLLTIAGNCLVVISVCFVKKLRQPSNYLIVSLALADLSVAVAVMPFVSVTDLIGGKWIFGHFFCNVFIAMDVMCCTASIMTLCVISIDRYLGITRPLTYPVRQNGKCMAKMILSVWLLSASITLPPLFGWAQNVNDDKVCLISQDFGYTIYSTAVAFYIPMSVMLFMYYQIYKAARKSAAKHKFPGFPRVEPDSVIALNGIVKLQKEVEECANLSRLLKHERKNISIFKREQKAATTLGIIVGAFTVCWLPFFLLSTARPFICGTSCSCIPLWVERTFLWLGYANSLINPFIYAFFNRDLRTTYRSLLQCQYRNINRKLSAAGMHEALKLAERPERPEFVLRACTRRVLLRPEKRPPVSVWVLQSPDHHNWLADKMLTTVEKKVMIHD

[23] = molecular target: D(1A) dopamine receptor (Homo sapiens, UniProt P21728); test: Binding affinity to dopamine 1 receptor (unknown origin)
[24] = molecular target: 5-hydroxytryptamine receptor 1D (Homo sapiens, UniProt P28221); test: Binding affinity to 5HT1D receptor (unknown origin)
5-hydroxytryptamine receptor 1D, sequence (P28221 whole entry): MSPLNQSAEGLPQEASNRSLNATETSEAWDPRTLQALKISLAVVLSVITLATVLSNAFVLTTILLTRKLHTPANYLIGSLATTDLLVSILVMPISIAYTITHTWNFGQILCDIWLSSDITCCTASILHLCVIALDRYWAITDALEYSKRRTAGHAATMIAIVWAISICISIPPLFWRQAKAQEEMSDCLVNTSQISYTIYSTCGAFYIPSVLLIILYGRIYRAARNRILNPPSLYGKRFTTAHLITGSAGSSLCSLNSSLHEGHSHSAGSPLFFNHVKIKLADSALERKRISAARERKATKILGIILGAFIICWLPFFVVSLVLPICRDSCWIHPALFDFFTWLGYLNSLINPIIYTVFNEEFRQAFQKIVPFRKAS

COc1ccccc1N1CCN(CCCCn2ncc(=O)n(C)c2=O)CC1
Ki [1]: 1030 nM | Ki [2]: > 10000 nM | Ki [3]: 21 nM | Ki [4]: 6.75 nM | Ki [5]: > 10000 nM | Ki [6]: > 10000 nM | Ki [7]: 4980 nM | Ki [8]: 73.6 nM | Ki [9]: 96 nM | Ki [10]: 123 nM | Ki [11]: 0.15 nM | Ki [12]: 643 nM | Emax [13]: 80% | Ki [14]: > 10000 nM | EC50 [15]: 0.1 nM | Ki [16]: > 10000 nM | Ki [17]: 238 nM | Ki [18]: > 10000 nM | Ki [19]: 59 nM | Ki [20]: 2130 nM | Ki [21]: 15 nM | Ki [22]: 12.9 nM | Ki [23]: > 10000 nM | Ki [24]: 88.3 nM
